In patent US9872882B2, “Aurantiamide dipeptide derivatives for treatment or prevention of angiogenesis-related diseases” (Mackay Medical College, priority 2015, dated 2018):

How the values were obtained:
[1] = test system: hyperoxia-induced retinal neovascularization; assay: Oxygen-induced retinopathy (OIR) model; type: in vivo, BALB/c-nude mice; conditions: retinal whole mounts, FIG. 5
Text: The mouse model of OIR has been widely used to induce retinal neovascularization in studies related to retinal ischaemic diseases, including AMD, and in studies evaluating the efficacy of antiangiogenic compounds. Briefly, BALB/c-nude mice at postnatal day (P7) are subjected to hyperoxia (75% oxygen) along with their nursing dam for 5 days (P12), and then to room air to produce retinal neovascularization. Neovascularization occurs upon return to normoxia and peaks at P17. All of the mice in the OR model were perfusion fixed via left ventricular puncture at the time of euthanasia, with 5 ml rhodamine-conjugated dextran. Then, angiography of retinal vasculature was performed and retinal whole mounts were prepared to score features of retinopathy.

[2] = test system: VEGF release from B16F10 melanoma cells; assay: VEGF ELISA assay; type: cell-based, mouse; conditions: B16F10, 24 hr, ELISA of supernatant, FIG. 4B
Procedure: (§1) Mouse melanoma cell line (B16F10) was obtained from American Type Culture Collection (ATCC, Manassas, Va.) and cultured in DMEM containing 10% FBS, penicillin (100 units/ml), streptomycin (100 μg/ml), and L-glutamine (2[…]mM). Cells were maintained in humidified air containing 5% CO2 at 37° C.
B16F10 cells were treated with various concentrations of Fmoc-10a or vehicle for 24 hr, and then the supernatant was collected to examine the amount of vascular endothelial growth factor (VEGF) protein. VEGF mouse ELISA Kit (Novex, Invitrogen) was used according to the manufacturer's instructions.

[3] = test system: VEGF-induced vessels sprouting from aortic rings; assay: Aortic ring sprouting assay (ex vivo); parameters: species or system Sprague-Dawley rats; conditions: VEGF 20 ng/ml, day 8, FIG. 3A
Procedure: Aortas were harvested from 8- to 10-week-old Sprague-Dawley rats. Following a complete washing, the aortas were cut into 1 mm ring segments. The aortic rings were placed in the 48-well plates which were pre-coated with 130 μl Matrigel and polymerized at 37° C. The wells were subsequently overlaid with another 50 μl Matrigel for sealing. VEGF (20 ng/ml) with or without Fmoc-10a was then added to the well. The cultured medium was changed every 3 days. Sprouting endothelial cells were observed and photographed on day 8. The area of sprouting vessels was measured quantitatively by Image-Pro Plus software.

[4] = test system: VEGF-induced microvessel formation; assay: Directed in vivo angiogenesis assay (DIVAA); parameters: species or system C57BL/6 mice; conditions: VEGF-containing DIVAA tubes implanted in mice, 15 days, FIG. 3B
Procedure: Surgical silicone tubes were filled at 4° C. with Matrigel containing VEGF with or without Fmoc-10a. Then, the dorsal haunches of the anesthetized mice (C57BL/6 mice) were shaved and sterile prepped. A 5 mm cutaneous incision was made and a 10 mm deep subcutaneous pocket was created with a sterile hemostat. DIVAA tubes were incubated at 37° C. for 1 hour to allow gel formation and then implanted into the dorsal flank of mice. After 15 days, DIVAA tubes were taken and photographed. Neovessels were quantified by measuring the hemoglobin of the plug with the Drabkin method. All procedures involving animal experiment were approved by the Institutional Animal Care and Use Committee at Mackay Medical College.

[5] = test system: B16F10 cells; assay: Experimental metastasis model; type: in vivo, C57BL/6 mice; conditions: B16F10 tail vein; 1.5 or 4.5 mg/kg intraperitoneally every day, FIG. 4D
Procedure: B16F10 cells (2×10^6) were slowly injected into the lateral tail vein of C57BL/6 mice to initiate tumor metastasis. Fmoc-10a (1.5 or 4.5 mg/kg) was intraperitoneally administered to mice every day from 3 days before tumor cell injection to 21 days after tumor cell injection (the day sacrificed).

[6] = test system: late EPCs; assay: Capillary tube formation assay on Matrigel; type: cell-based, human; conditions: 16 h treatment, FIG. 1E
Procedure: (§2) This investigation conforms with the principles outlined in the Declaration of Helsinki for use of human tissue. Ethical approval was granted by the Institutional Review Board of the Mackay Memorial Hospital, Taipei, Taiwan. Informed consent was obtained from healthy donors before the collection of peripheral blood (80 mL). The peripheral blood mononuclear cells (PBMCs) were fractionated from other blood components by centrifugation on Ficoll-Paque™ plus (GE Healthcare) according to the manufacturer's instructions. CD34-positive progenitor cells were obtained and cultured. In brief, the cells were isolated from PBMCs using CD34 MicroBead kit and MACSTM Cell Separation System (all from Miltenyi Biotec). CD34-positive EPCs were maintained in MV2 complete medium (PromoCell) consisting of endothelial basal medium, 20% fetal bovine serum, hEGF, VEGF, hFGF-B, IGF-1, ascorbic acid, and heparin. 1×10^6 cells/cm^2 were seeded on fibronectin-coated dish (BD Biosciences) and maintained in 37° C. incubator under a humidified 95% air and 5% CO2 atmosphere.
Matrigel (BD Biosciences, Bedford, Mass.), which was used to promote the differentiation of EPCs into a capillary tube-like structure, was added to 48-well plates. […] Tube formation was quantified by measuring the long axis of each tube in 3 random fields per well by using Image-Pro Plus software.

[7] = test system: early EPCs; assay: Early EPC chemotaxis assay (Transwell); type: cell-based, human; conditions: 4 hours, FIG. 2C
Procedure: The chemotactic motility of early EPCs was evaluated using a Transwell. The lower filter surface was coated with gelatin. Fmoc-10a in presence or absence of MV2 complete medium was placed in the lower wells. The chamber was incubated at 37° C. for 4 hours. Cells were fixed with cold methanol and stained with 0.5% crystal violet.

[8] = test system: late EPCs; assay: Cytotoxicity assay (LDH release); type: cell-based, human; conditions: 48 h, even at high concentration (30 μM), FIG. 1C
Procedure: as §2
EPCs were treated with MV2 complete medium containing 2% FBS for 48 h in the absence or presence of Fmoc-10a. The percentage of LDH release was calculated from the ratio of LDH activity in the medium to LDH activity in the cell lysate after Fmoc-10a treatment.

[9] = test system: early EPCs; assay: Colony-forming assay (CFU-Hill); type: cell-based, human; conditions: FIGS. 2A&2B
Text: Isolated PBMCs are resuspended in MV2 complete medium. After 2 days, the nonadherent cells were collected and replated onto a fibronectin-coated 24-well plate. Five days later, the number of colony-forming units (CFUs) od early EPCs per well was counted.

[10] = test system: B16F10 melanoma cells; assay: Matrigel invasion assay; type: cell-based, mouse; conditions: B16F10, 16 h, FIG. 4A
Procedure: as §1
The upper side of the filters was coated with Matrigel (BD Biosciences, Bedford, Mass.) at a concentration of 125 […]μg/cm^2. B16F10 cells (5×10^4 cells/well) were seeded onto the upper chamber with serum-free medium, then incubated in the bottom chamber with culture medium containing 10% FBS in the absence or presence of Fmoc-10a. After 16 h of treatment, cells on the upper side of the filters were mechanically removed, and those migrated on the lower side were fixed with 4% formaldehyde, then stained with 0.5% crystal violet for 10 min. Finally, invaded cells were quantified by counting the number of stained cells in 10 random fields with the inverted phase contrast microscope and photographed.

[11] = test system: B16F10 melanoma; assay: Subcutaneous xenograft model; type: in vivo, C57BL/6 mice; conditions: daily intraperitoneal injection, FIG. 4C
Procedure: B16F10 cells (2×10^6) in a volume of 100 μL were injected subcutaneously into the right flank of the C57BL/6 mice. After 9 days, when tumors reached 2 mm in diameter, the mice were randomly given vehicle or the indicated doses of Fmoc-10a daily by intraperitoneal injection. Tumor size and body weight were measured every day. The tumor volume was calculated according to the following formula: V=(length×width^2/2). In accordance with the Animal Ethics Committee, the experiments should be stopped when an unbearable situation appeared in animals.

[12] = test system: late EPCs; assay: Cell proliferation assay (MTT); type: cell-based, human; conditions: 48 h treatment, FIG. 1B
Procedure: as §2
EPCs (5×10^3 cells/well) were seeded onto 96-well plates. After 24 h incubation, the culture medium was removed and cells were incubated with fresh MV2 complete medium containing 2% FBS for 48 h in the absence or presence of Fmoc-10a. […] Formazan crystal was lysed by dimethyl sulfoxide (DMSO) and absorbance was measured at 550 nm with ELISA-reader.

[13] = test system: late EPCs; assay: Transwell cell migration assay; type: cell-based, human; conditions: 16 h treatment, FIG. 1D
Procedure: as §2, with “1×10^6 cells/cm^2 were seeded on fibronectin-coated dish (BD Biosciences) and maintained in 37° C. incubator under a humidified 95% air and 5% CO2 atmosphere.” left out
EPCs (5×10^4 cells/well) were seeded onto the upper chamber with MV2 complete medium, then incubated in the bottom chamber with MV2 complete medium containing 2% FBS with the indicated concentrations of Fmoc-10. […] Cell migration was quantified by counting the number of stained cells in 10 random fields with the inverted phase contrast microscope and photographed.

| Molecule | hyperoxia-induced pathological neovascularization in mice [1] | production of VEGF in melanoma cells [2] | VEGF-induced vessels sprouting from aortic rings [3] | microvessel formation in the Matrigel plugs (hemoglobin content) [4] | lung metastasis of melanoma cancer (pulmonary colony number) [5] | tube formation of late EPCs [6] | chemotaxis of early EPCs [7] | LDH release of late EPCs [8] | CFU-Hill colonies of early EPCs [9] | cell invasion of melanoma cells [10] | tumor growth of melanoma cells [11] | cell proliferation of late EPCs [12] | cell migration of late EPCs [13] |
| --- | --- | --- | --- | --- | --- | --- | --- | --- | --- | --- | --- | --- | --- |
| Avastin: Avastin (10 μg) was used as positive control in the OIR model [reference compound] | significantly blocks hyperoxia-induced pathological neovascularization | – | – | – | – | – | – | – | – | – | – | – | – |
| CC(C)[C@H](NC(=O)OCC1c2ccccc2-c2ccccc21)C(=O)N[C@@H](CO)Cc1ccccc1 [Fmoc-10a, (9H-fluoren-9-yl)methyl (S)-1-((R)-1-hydroxy-3-phenylpropan-2-ylamino)-3-methyl-1-oxobutan-2-ylcarbamate] | significantly blocks hyperoxia-induced pathological neovascularization | significantly inhibits | dramatically abrogated VEGF-induced vessels sprouting | attenuated concentration-dependently microvessel formation | substantially suppresses lung metastasis | significantly inhibits | markedly suppresses chemotaxis | does not induce LDH release | significantly inhibits CFU-Hill colonies | significantly inhibits cell invasion | potently blocks tumor growth of melanoma cells in a dose-dependent manner | suppresses cell proliferation of late EPCs in a concentration-dependent manner | significantly inhibits cell migration |
